Reference: patent US11304886B2, “N-acyl sarcosines as antimicrobials for preservation of home and personal care products” (GALAXY SURFACTANTS LTD., priority 2016, dated 2022)

Experiments:
Test in all cases: Minimum Inhibitory Concentration (MIC)
Type in all cases: cell-based
[1] = tested on: Escherichia coli ATCC 8739
[2] = tested on: Malassezia furfur MTCC 1374
[3] = tested on: Candida albicans ATCC 10231
[4] = tested on: Propionibacterium acnes ATCC 1953
[5] = tested on: Aspergillus niger ATCC 16404
[6] = tested on: Staphylococcus aureus ATCC 6538
[7] = tested on: Pseudomonas aeruginosa ATCC 15442

MIC (%) [1] [%]	MIC (%) [2] [%]	MIC (%) [3] [%]	MIC (%) [4] [%]	MIC (%) [5] [%]	MIC (%) [6] [%]	MIC (%) [7] [%]	Compound
0.7	0.6	0.7	0.6	>1.0	0.7	0.7	CCCCCCCC(=O)N(C)CC(=O)O [N-Capryloyl sarcosine, N-Capryloyl Sarcosine]
0.7	0.6	0.6	0.7	>1.0	0.6	0.6	C=CCCCCCCCCC(=O)N(C)CC(=O)O [N-Undecylenoyl sarcosine, N-Undecylenoyl Sarcosine]

Compound	MIC (%) [1] [%]	MIC (%) [2] [%]	MIC (%) [3] [%]	MIC (%) [4] [%]	MIC (%) [5] [%]	MIC (%) [6] [%]	MIC (%) [7] [%]
OCCOc1ccccc1 [phenoxy ethanol, 2-phenoxy ethanol, reference compound]	0.6	0.6	0.6	0.4	0.9	0.8	0.8
